Experimental findings from patent US20240024488A1, “COMPOUNDS AND USES THEREOF” (Foghorn Therapeutics Inc., priority 2020, published 2024) are described below.

Assay [1] deals with T1, HiBit-BRG1 fusion protein (Homo sapiens, UniProt P51532).
T1 construct: expressed in transfected cells
As to the kind of experiment: HiBiT-BRG1 cell-based degradation assay (Nano-Glo HiBiT Lytic Detection, 24 h). Conditions: HeLa cell line expressing HiBit-BRG1 and LgBit; for Dmax: read-out: BRG1 HiBit Degradation Maximum (%); for DC50: read-out: BRMG1 HiBit Degradation IC50. Put shortly: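 Percent degradation derived from lytic HiBiT signal, normalized to DMSO-treated cells and to cells given 2 μM of a known BRM/BRG1 degrader. The HeLa line stably expressed HiBit-BRG1 and LgBit; treatment lasted 24 h at 5000 cells per well.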
A general note: With HiBiT, luminescence reflects the tagged protein that the partner subunit can reach.

For assay [2], the target named is T2, HiBit-BRM fusion protein (Homo sapiens, UniProt P51531).
T2 construct: expressed in transfected cells
T2 sequence (P51531 whole entry, the tested form may be a part): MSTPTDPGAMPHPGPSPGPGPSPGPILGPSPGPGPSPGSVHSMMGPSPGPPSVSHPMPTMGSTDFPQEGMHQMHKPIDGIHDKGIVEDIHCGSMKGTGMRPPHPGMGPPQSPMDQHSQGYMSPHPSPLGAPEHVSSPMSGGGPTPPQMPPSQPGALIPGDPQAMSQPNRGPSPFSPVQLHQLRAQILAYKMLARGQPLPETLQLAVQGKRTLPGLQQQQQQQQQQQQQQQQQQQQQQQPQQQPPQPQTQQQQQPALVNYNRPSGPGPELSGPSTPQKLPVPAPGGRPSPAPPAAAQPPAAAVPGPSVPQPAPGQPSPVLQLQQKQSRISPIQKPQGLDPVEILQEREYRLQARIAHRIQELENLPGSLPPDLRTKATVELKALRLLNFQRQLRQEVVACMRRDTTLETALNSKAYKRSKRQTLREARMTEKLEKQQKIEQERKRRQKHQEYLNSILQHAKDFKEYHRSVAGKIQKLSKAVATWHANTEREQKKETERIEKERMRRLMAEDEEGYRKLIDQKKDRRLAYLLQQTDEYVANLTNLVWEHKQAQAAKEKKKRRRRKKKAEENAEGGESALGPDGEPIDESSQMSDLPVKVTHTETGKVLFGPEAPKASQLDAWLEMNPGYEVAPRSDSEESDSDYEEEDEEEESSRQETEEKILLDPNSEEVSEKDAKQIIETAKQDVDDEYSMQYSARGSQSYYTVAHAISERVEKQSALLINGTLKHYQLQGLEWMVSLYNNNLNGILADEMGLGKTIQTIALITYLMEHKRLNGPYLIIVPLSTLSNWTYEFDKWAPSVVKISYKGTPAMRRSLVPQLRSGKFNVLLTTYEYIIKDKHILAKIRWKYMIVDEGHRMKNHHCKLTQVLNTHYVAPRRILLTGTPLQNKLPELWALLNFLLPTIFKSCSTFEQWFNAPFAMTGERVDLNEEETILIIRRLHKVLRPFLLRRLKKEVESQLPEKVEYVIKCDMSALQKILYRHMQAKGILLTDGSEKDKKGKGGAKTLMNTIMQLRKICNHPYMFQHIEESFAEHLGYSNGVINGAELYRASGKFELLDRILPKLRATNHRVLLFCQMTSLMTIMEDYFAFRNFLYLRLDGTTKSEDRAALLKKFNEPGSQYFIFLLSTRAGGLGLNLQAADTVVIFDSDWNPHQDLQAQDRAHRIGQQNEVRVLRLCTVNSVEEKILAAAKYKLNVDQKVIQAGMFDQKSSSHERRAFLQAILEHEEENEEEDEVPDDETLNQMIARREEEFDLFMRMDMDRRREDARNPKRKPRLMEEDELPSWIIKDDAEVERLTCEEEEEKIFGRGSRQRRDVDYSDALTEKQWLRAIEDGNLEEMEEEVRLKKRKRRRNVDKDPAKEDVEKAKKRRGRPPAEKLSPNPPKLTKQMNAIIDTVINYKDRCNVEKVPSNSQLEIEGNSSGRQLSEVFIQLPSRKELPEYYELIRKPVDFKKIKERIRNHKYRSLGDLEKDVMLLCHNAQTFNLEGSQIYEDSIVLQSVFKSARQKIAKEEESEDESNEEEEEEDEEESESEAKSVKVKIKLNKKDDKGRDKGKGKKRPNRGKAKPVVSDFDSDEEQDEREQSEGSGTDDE
As to the kind of experiment: HiBiT-BRM cell-based degradation assay (Nano-Glo HiBiT Lytic Detection, 24 h). Conditions: HeLa cell line expressing HiBiT-BRM; for DC50: read-out: BRM HiBit Degradation IC50. In outline: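 HeLa cells stably expressing HiBiT-BRM were dosed with compounds (10-point 3-fold dilutions, 30 μM final top dose, duplicate) for 24 h. HiBiT signal was read by lytic LgBiT complementation luminescence. Percent degradation was normalised to DMSO (high control) and 2 μM of a reference BRM/BRG1 degrader (low control).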

T1 sequence (P51532 whole entry, the tested form may be a part): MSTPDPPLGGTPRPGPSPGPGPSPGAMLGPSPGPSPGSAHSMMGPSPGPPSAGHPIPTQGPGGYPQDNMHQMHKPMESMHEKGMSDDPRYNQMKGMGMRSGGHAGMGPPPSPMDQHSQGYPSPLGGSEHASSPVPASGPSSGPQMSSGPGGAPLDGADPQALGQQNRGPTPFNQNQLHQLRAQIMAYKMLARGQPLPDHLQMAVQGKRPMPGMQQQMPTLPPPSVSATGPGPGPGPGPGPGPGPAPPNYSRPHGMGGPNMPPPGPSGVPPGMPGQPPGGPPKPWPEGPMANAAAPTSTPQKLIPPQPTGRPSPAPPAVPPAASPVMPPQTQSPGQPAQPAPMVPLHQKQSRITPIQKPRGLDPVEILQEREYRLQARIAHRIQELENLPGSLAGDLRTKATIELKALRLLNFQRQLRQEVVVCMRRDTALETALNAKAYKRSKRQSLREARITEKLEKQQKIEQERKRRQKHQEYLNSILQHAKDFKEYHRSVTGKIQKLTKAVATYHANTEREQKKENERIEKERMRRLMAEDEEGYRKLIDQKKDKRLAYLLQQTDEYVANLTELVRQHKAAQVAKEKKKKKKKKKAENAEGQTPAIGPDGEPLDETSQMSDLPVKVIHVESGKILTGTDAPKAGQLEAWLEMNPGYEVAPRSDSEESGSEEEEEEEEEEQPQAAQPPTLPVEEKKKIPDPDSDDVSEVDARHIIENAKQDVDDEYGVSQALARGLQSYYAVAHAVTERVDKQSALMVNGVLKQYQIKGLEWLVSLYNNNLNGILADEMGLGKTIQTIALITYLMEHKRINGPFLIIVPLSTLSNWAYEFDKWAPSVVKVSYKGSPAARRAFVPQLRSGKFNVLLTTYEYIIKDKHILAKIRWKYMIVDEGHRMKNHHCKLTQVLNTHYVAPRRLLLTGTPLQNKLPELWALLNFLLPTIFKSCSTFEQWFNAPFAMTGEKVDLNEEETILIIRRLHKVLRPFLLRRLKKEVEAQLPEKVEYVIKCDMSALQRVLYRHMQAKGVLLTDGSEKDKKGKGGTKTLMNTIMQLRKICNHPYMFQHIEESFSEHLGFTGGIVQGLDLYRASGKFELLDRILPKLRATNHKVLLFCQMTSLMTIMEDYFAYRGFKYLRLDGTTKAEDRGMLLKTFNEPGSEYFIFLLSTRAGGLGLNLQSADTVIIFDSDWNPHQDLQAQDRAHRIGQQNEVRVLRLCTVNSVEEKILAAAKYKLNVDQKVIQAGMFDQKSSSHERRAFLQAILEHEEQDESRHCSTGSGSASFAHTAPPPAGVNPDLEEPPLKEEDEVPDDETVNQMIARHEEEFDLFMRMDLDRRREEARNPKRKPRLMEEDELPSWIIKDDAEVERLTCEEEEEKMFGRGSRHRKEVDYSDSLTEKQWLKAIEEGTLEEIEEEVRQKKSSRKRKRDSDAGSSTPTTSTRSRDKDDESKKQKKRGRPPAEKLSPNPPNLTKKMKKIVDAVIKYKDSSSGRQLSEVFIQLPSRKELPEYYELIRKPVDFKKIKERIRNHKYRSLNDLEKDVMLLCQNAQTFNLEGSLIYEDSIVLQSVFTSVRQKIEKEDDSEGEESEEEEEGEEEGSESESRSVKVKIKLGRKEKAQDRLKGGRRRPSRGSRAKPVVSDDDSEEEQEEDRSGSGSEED

As for `Cc1ncsc1-c1ccc(CNC(=O)[C@@H]2C[C@@H](O)CN2C(=O)[C@@H](NC(=O)CCC(=O)N[C@@H]2CCc3[nH]c4nnc(-c5ccccc5O)cc4c3C2)C(C)(C)C)cc1` [Compound 171, N1-((S)-1-((2S,4R)-4-hydroxy-2-((4-(4-methylthiazol-5-yl)benzyl)carbamoyl)pyrrolidin-1-yl)-3,3-dimethyl-1-oxobutan-2-yl)-N4-((R)-3-(2-hydroxyphenyl)-6,7,8,9-tetrahydro-5H-pyridazino[3,4-b]indol-6-yl)succinamide], in assay [1], the Dmax was under 50%. Besides, the “BRM HiBit Degradation Maximum (%)” value in assay [2] is given as “C (“C” indicates maximum degradation < 50%)”.
The like results for `Cc1ncsc1-c1ccc([C@H](C)NC(=O)[C@@H]2C[C@@H](O)CN2C(=O)C(c2cc(OCC(=O)N[C@@]3(C(=O)O)CCc4[nH]c5nnc(-c6ccccc6O)cc5c4C3)no2)C(C)C)cc1` (single isomer, unassigned) [Compound 88] were, in that order, under 50% and “C (“C” indicates maximum degradation < 50%)”.
With `Cc1ncsc1-c1ccc([C@H](C)NC(=O)[C@@H]2C[C@@H](O)CN2C(=O)[C@@H](c2cc(OCCN3CC(C4(C)Cc5cc(-c6ccccc6O)nnc5N4)C3)no2)C(C)C)cc1` (stereo partly drawn) [Compound 122, (2S,4R)-4-hydroxy-1-((2R)-2-(3-(2-(3-(3-(2-hydroxyphenyl)-6-methyl-6,7-dihydro-5H-pyrrolo[2,3-c]pyridazin-6-yl)azetidin-1-yl)ethoxy)isoxazol-5-yl)-3-methylbutanoyl)-N-((S)-1-(4-(4-methylthiazol-5-yl)phenyl)ethyl)pyrrolidine-2-carboxamide], the Dmax in assay [1] is over 50%. Also, the “BRM HiBit Degradation Maximum (%)” value in assay [2] is on record as “C (“C” indicates maximum degradation < 50%)”.
As to `Cc1ncsc1-c1ccc([C@H](C)NC(=O)[C@@H]2C[C@@H](O)CN2C(=O)[C@@H](c2cc(OCCN3CC(CCc4cc5cc(-c6ccccc6O)nnc5[nH]4)C3)no2)C(C)C)cc1` (racemic) [Compound 244, (2S,4R)-4-hydroxy-1-((R)-2-(3-(2-(3-(2-(3-(2-hydroxyphenyl)-7H-pyrrolo[2,3-c]pyridazin-6-yl)ethyl)azetidin-1-yl)ethoxy)isoxazol-5-yl)-3-methylbutanoyl)-N-((S)-1-(4-(4-methylthiazol-5-yl)phenyl)ethyl)pyrrolidine-2-carboxamide], the Dmax in assay [1] is over 50%. In addition, in assay [2], the “BRM HiBit Degradation Maximum (%)” value was “A (“A” indicates maximum degradation ≥ 75%)” and the DC50 is over 100 nM.
As to `Cc1ncsc1-c1ccc([C@H](C)NC(=O)[C@@H]2C[C@@H](O)CN2C(=O)[C@@H](c2cc(N3CCC(CN[C@@H]4CCc5[nH]c6nnc(-c7ccccc7O)cc6c5C4)CC3)no2)C(C)C)cc1` (single isomer, unassigned) [Compound 173], in assay [1], the Dmax is over 50% and the DC50 was over 1000 nM. Besides, in assay [2], the “BRM HiBit Degradation Maximum (%)” value is “A (“A” indicates maximum degradation ≥ 75%)” and the DC50 was over 100 nM.
The like results for `Cc1ncsc1-c1ccc([C@H](C)NC(=O)[C@@H]2C[C@@H](O)CN2C(=O)[C@@H](c2cc(N3CCC(CN(C)[C@H]4CCc5[nH]c6nnc(-c7ccccc7O)cc6c5C4)CC3)no2)C(C)C)cc1` [Compound 107, (2S,4R)-4-hydroxy-1-((R)-2-(3-(4-((((S)-3-(2-hydroxyphenyl)-6,7,8,9-tetrahydro-5H-pyridazino[3,4-b]indol-6-yl)(methyl)amino)methyl)piperidin-1-yl)isoxazol-5-yl)-3-methylbutanoyl)-N-((S)-1-(4-(4-methylthiazol-5-yl)phenyl)ethyl)pyrrolidine-2-carboxamide] were, in that order, over 75%, over 10 nM, “A (“A” indicates maximum degradation ≥ 75%)” and over 10 nM.
Take `Cc1ncsc1-c1ccc([C@H](C)NC(=O)[C@@H]2C[C@@H](O)CN2C(=O)[C@@H](c2cc(OCCCN3C[C@@H]4[C@H](C3)[C@H]4c3cc4cc(-c5ccccc5O)nnc4[nH]3)no2)C(C)C)cc1` (racemic) [Compound 216, (2S,4R)-4-hydroxy-1-((R)-2-(3-(3-((1R,5S,6R)-6-(3-(2-hydroxyphenyl)-7H-pyrrolo[2,3-c]pyridazin-6-yl)-3-azabicyclo[3.1.0]hexan-3-yl)propoxy)isoxazol-5-yl)-3-methylbutanoyl)-N-((S)-1-(4-(4-methylthiazol-5-yl)phenyl)ethyl)pyrrolidine-2-carboxamide]: the Dmax in assay [1] was under 50%. In addition, in assay [2], the “BRM HiBit Degradation Maximum (%)” value is on record as “A (“A” indicates maximum degradation ≥ 75%)” and the DC50 is over 100 nM.
For `O=C1CCC(N2C(=O)c3ccc(NCCCCCCCCC(=O)N4CC(c5cc6cc(-c7ccccc7O)nnc6[nH]5)C4)cc3C2=O)C(=O)N1` (stereo not drawn) [Compound 9, 2-(2,6-dioxopiperidin-3-yl)-5-((9-(3-(3-(2-hydroxyphenyl)-7H-pyrrolo[2,3-c]pyridazin-6-yl)azetidin-1-yl)-9-oxononyl)amino) isoindoline-1,3-dione] the same measures were under 50%, “B (“B” indicates maximum degradation ≥ 50%)” and over 1000 nM.
Take `Cc1ncsc1-c1ccc([C@H](C)NC(=O)[C@@H]2C[C@@H](O)CN2C(=O)[C@@H](c2cc(OCCN3CCN(CCN4CC(c5cc6cc(-c7ccccc7O)nnc6[nH]5)C4)CC3)no2)C(C)C)cc1` (racemic) [Compound 58, (2S,4R)-4-hydroxy-1-((R)-2-(3-(2-(4-(2-(3-(3-(2-hydroxyphenyl)-7H-pyrrolo[2,3-c]pyridazin-6-yl)azetidin-1-yl)ethyl)piperazin-1-yl)ethoxy)isoxazol-5-yl)-3-methylbutanoyl)-N-((S)-1-(4-(4-methylthiazol-5-yl)phenyl)ethyl)pyrrolidine-2-carboxamide]: in assay [1], the Dmax is over 75% and the DC50 was over 100 nM. Also, in assay [2], the “BRM HiBit Degradation Maximum (%)” value is recorded as “A (“A” indicates maximum degradation ≥ 75%)” and the DC50 was over 100 nM.
Turning to `Cc1ncsc1-c1ccc([C@H](C)NC(=O)[C@@H]2C[C@@H](O)CN2C(=O)[C@H](c2cc(N3CC(CN4CC(c5cc6cc(-c7ccccc7O)nnc6[nH]5)C4)C3)no2)C(C)C)cc1` (single isomer, unassigned) [Compound 162], in assay [1], the Dmax was over 50% and the DC50 was over 1000 nM. Moreover, the “BRM HiBit Degradation Maximum (%)” value in assay [2] was “C (“C” indicates maximum degradation < 50%)”.
As to `Cc1ncsc1-c1ccc([C@H](C)NC(=O)[C@@H]2C[C@@H](O)CN2C(=O)[C@@H](c2cc(N3CCC(CN[C@H]4CCc5[nH]c6nnc(-c7ccccc7O)cc6c5C4)CC3)no2)C(C)C)cc1` [Compound 159, (2S,4R)-4-hydroxy-1-((R)-2-(3-(4-((((S)-3-(2-hydroxyphenyl)-6,7,8,9-tetrahydro-5H-pyridazino[3,4-b]indol-6-yl)amino)methyl)piperidin-1-yl)isoxazol-5-yl)-3-methylbutanoyl)-N-((S)-1-(4-(4-methylthiazol-5-yl)phenyl)ethyl)pyrrolidine-2-carboxamide], in assay [1], the Dmax is over 75% and the DC50 is over 100 nM. Further, in assay [2], the “BRM HiBit Degradation Maximum (%)” value is recorded as “A (“A” indicates maximum degradation ≥ 75%)” and the DC50 was over 10 nM.
For `Cc1ncsc1-c1ccc([C@H](C)NC(=O)[C@@H]2C[C@@H](O)CN2C(=O)[C@@H](c2cc(OCCNCc3ccc(Cc4cc5cc(-c6ccccc6O)nnc5[nH]4)cc3)no2)C(C)C)cc1` (racemic) [Compound 295] the same measures were over 75%, over 100 nM, “A (“A” indicates maximum degradation ≥ 75%)” and over 10 nM.
The like results for `Cc1ncsc1-c1ccc([C@H](C)NC(=O)[C@@H]2C[C@@H](O)CN2C(=O)[C@@H](c2cc(N3CCN(C(=O)CN4CC(c5cc6cc(-c7ccccc7O)nnc6[nH]5)C4)CC3)no2)C(C)C)cc1` (racemic) [Compound 269, (2S,4R)-4-hydroxy-1-((R)-2-(3-(4-(2-(3-(3-(2-hydroxyphenyl)-7H-pyrrolo[2,3-c]pyridazin-6-yl)azetidin-1-yl)acetyl)piperazin-1-yl)isoxazol-5-yl)-3-methylbutanoyl)-N-((S)-1-(4-(4-methylthiazol-5-yl)phenyl)ethyl)pyrrolidine-2-carboxamide] were, in that order, over 75%, over 100 nM, “A (“A” indicates maximum degradation ≥ 75%)” and over 10 nM.
On to `Cc1ncsc1-c1ccc([C@H](C)NC(=O)[C@@H]2C[C@@H](O)CN2C(=O)[C@@H](c2cc(OCCN(C)CCN3CC(c4cc5cc(-c6ccccc6O)nnc5[nH]4)C3)no2)C(C)C)cc1` (racemic) [Compound 59, (2S,4R)-4-hydroxy-1-((R)-2-(3-(2-((2-(3-(3-(2-hydroxyphenyl)-7H-pyrrolo[2,3-c]pyridazin-6-yl)azetidin-1-yl)ethyl)(methyl)amino)ethoxy)isoxazol-5-yl)-3-methylbutanoyl)-N-((S)-1-(4-(4-methylthiazol-5-yl)phenyl)ethyl)pyrrolidine-2-carboxamide], for which the Dmax in assay [1] is under 50%. Moreover, in assay [2], the “BRM HiBit Degradation Maximum (%)” value is listed as “B (“B” indicates maximum degradation ≥ 50%)” and the DC50 is over 100 nM.
